Test results as given in ChEMBL document CHEMBL4483862, “Open-source discovery of chemical leads for next-generation chemoprotective antimalarials” (2018).

System: Plasmodium berghei
Test: Luciferase/luciferin-expressing antifolate-resistant parasites were used to infect a culture of HepG2 cells that were pre-incubated with compounds. Infected hepatocytes emit light due to the luciferase reaction. Assay results are presented as the percent inhibition of light emission compared to control. […]
Type: functional
Conditions: sporozoite; for IC90: read-out: LUCIFERASE INFECTION ASSAY - IC90

SMILES	IC90 [µM]	also measured
N/C(=N\OC(=O)c1ccc2ncsc2c1)c1ccccc1	9.73	IC50 (FFLUC_HILL_SLOPE 2.58, FFLUC_R_SQUARED 0.671, PBLUC_HILL_SLOPE 1.01, PBLUC_R_SQUARED 0.623, read-out: LUCIFERASE INFECTION ASSAY - IC50): 1.1 µM
O=C(COC(=O)c1cc2ccccc2cc1O)NC(c1ccccc1)c1ccccc1	> 10	IC50 (FFLUC_HILL_SLOPE 2.56, FFLUC_R_SQUARED 0.57, PBLUC_HILL_SLOPE 2.71, PBLUC_R_SQUARED 0.551, read-out: LUCIFERASE INFECTION ASSAY - IC50): 4.79 µM
COc1ccc2c(-c3ccccc3)cc(SC(C)C(=O)N3CCNC3=O)nc2c1 (stereo not given)	1.25	IC50 (FFLUC_HILL_SLOPE 2.47, FFLUC_R_SQUARED 0.615, PBLUC_HILL_SLOPE 18.2, PBLUC_R_SQUARED 0.514, read-out: LUCIFERASE INFECTION ASSAY - IC50): 1.11 µM
Cc1cc(C2=NNC(=NC3CC3)SC2)c(C)n1-c1ccc2c(c1)OCO2	9.71	IC50 (FFLUC_HILL_SLOPE 2.46, FFLUC_R_SQUARED 0.719, PBLUC_HILL_SLOPE 1.67, PBLUC_R_SQUARED 0.595, read-out: LUCIFERASE INFECTION ASSAY - IC50): 2.61 µM
CC(c1nc2ccccc2s1)N(C)c1ncnc2sc3c(c12)CCC3 (stereo not given)	> 10	IC50 (FFLUC_HILL_SLOPE 2.52, FFLUC_R_SQUARED 0.413, HEPG2TOX_HILL_SLOPE 5.64, HEPG2TOX_R_SQUARED 0.118, PBLUC_HILL_SLOPE 2.14, PBLUC_R_SQUARED 0.426, read-out: LUCIFERASE INFECTION ASSAY - IC50): > 10 µM
CN(C1CCCCC1)S(=O)(=O)c1ccc(NC(=S)NC(=O)c2ccco2)cc1	> 10	IC50 (FFLUC_HILL_SLOPE 2.51, FFLUC_R_SQUARED 0.131, read-out: LUCIFERASE INFECTION ASSAY - IC50): > 10 µM
CC(C)(C)c1ccc(C(=N)NOC(=O)c2sccc2Cl)cc1	2.4	IC50 (FFLUC_HILL_SLOPE 2.56, FFLUC_R_SQUARED 0.405, HEPG2TOX_HILL_SLOPE 0.0994, HEPG2TOX_R_SQUARED 0.101, PBLUC_HILL_SLOPE 0.809, PBLUC_R_SQUARED 0.834, read-out: LUCIFERASE INFECTION ASSAY - IC50): 0.159 µM
C=CCn1c(SCC(=O)c2cc(C)n(CC3CCCO3)c2C)nc2scc(-c3ccc(C)cc3)c2c1=O (stereo not given)	> 10	IC50 (FFLUC_HILL_SLOPE 2.53, FFLUC_R_SQUARED 0.599, read-out: LUCIFERASE INFECTION ASSAY - IC50): > 10 µM
O=C(Nc1nc2ccccc2[nH]1)c1cn(-c2ccccc2C(F)(F)F)nn1	> 10	IC50 (FFLUC_HILL_SLOPE 2.58, FFLUC_R_SQUARED 0.587, PBLUC_HILL_SLOPE 2.16, PBLUC_R_SQUARED 0.829, read-out: LUCIFERASE INFECTION ASSAY - IC50): 5.53 µM
c1ccc(NCc2ccc(-c3cn4c(-c5ccccc5)cnc4cn3)cc2)cc1	> 8.77	IC50 (FFLUC_HILL_SLOPE 2.57, FFLUC_R_SQUARED 0.0602, PBLUC_HILL_SLOPE 15.1, PBLUC_R_SQUARED 0.239, read-out: LUCIFERASE INFECTION ASSAY - IC50): 7.8 µM
Cc1nn(-c2ccccc2)c2nc(-c3cccs3)cc(C(=O)OC(C)C(=O)N3CCCc4ccccc43)c12 (stereo not given)	> 10	IC50 (FFLUC_HILL_SLOPE 2.63, FFLUC_R_SQUARED 0.683, PBLUC_HILL_SLOPE 9.18, PBLUC_R_SQUARED 0.333, read-out: LUCIFERASE INFECTION ASSAY - IC50): 8.32 µM
O=[N+]([O-])c1ccccc1Sc1sc2ncnc(N/N=C/c3cccs3)c2c1-c1ccccc1	1.17	IC50 (FFLUC_HILL_SLOPE 2.47, FFLUC_R_SQUARED 0.702, HEPG2TOX_HILL_SLOPE 1.48, HEPG2TOX_R_SQUARED 0.963, PBLUC_HILL_SLOPE 5.47, PBLUC_R_SQUARED 0.841, read-out: LUCIFERASE INFECTION ASSAY - IC50): 0.785 µM
Cc1ccc(/C=C2\Oc3cc(O)cc(C)c3C2=O)cc1	7.36	IC50 (FFLUC_HILL_SLOPE 2.5, FFLUC_R_SQUARED 0.135, PBLUC_HILL_SLOPE 2.13, PBLUC_R_SQUARED 0.666, read-out: LUCIFERASE INFECTION ASSAY - IC50): 2.63 µM
Cc1ccc2cc(CN(CC(C)C)C(=O)c3cccc(Cl)c3)c(=O)[nH]c2c1	4.61	IC50 (FFLUC_HILL_SLOPE 2.55, FFLUC_R_SQUARED 0.111, HEPG2TOX_HILL_SLOPE 13.7, HEPG2TOX_R_SQUARED 0.575, PBLUC_HILL_SLOPE 6.1, PBLUC_R_SQUARED 0.569, read-out: LUCIFERASE INFECTION ASSAY - IC50): 3.21 µM
CCN(Cc1ccccc1)c1ccc(/C=N/Nc2ccc(C)c(Cl)c2)cc1	> 10	IC50 (FFLUC_HILL_SLOPE 2.55, FFLUC_R_SQUARED 0.818, read-out: LUCIFERASE INFECTION ASSAY - IC50): > 10 µM
CC(C)C(=O)Nc1ccc(-c2nc3ccccc3[nH]2)cc1	> 11.8	IC50 (FFLUC_HILL_SLOPE 2.58, FFLUC_R_SQUARED 0.591, PBLUC_HILL_SLOPE 1.21, PBLUC_R_SQUARED 0.595, read-out: LUCIFERASE INFECTION ASSAY - IC50): 4.49 µM
O=C1NC2(CCCc3ccccc32)C(=O)N1Cc1cc2ccccc2nc1Cl (stereo not given)	9.89	IC50 (FFLUC_HILL_SLOPE 2.55, FFLUC_R_SQUARED 0.444, HEPG2TOX_HILL_SLOPE 2.36, HEPG2TOX_R_SQUARED 0.953, PBLUC_HILL_SLOPE 3.3, PBLUC_R_SQUARED 0.364, read-out: LUCIFERASE INFECTION ASSAY - IC50): 5.08 µM
COc1ccc(C(C#N)=C2C=CC(=NO)C=C2)cc1	> 13.1	IC50 (FFLUC_HILL_SLOPE 2.5, FFLUC_R_SQUARED 0.687, PBLUC_HILL_SLOPE 18.8, PBLUC_R_SQUARED 0.229, read-out: LUCIFERASE INFECTION ASSAY - IC50): 12.9 µM
O=[N+]([O-])c1ccc(Sc2ccc(Cl)cc2)c(-c2cc[nH]n2)c1	> 9.95	IC50 (FFLUC_HILL_SLOPE 2.47, FFLUC_R_SQUARED 0.0888, HEPG2TOX_HILL_SLOPE 0.21, HEPG2TOX_R_SQUARED 0.178, PBLUC_HILL_SLOPE 0.977, PBLUC_R_SQUARED 0.273, read-out: LUCIFERASE INFECTION ASSAY - IC50): > 9.95 µM
Cc1cccc(CNc2nc3cnc(-c4cccc(Oc5ccccc5)c4)cc3n2C)c1	3.88	IC50 (FFLUC_HILL_SLOPE 2.46, FFLUC_R_SQUARED 0.608, HEPG2TOX_HILL_SLOPE 16, HEPG2TOX_R_SQUARED 0.341, PBLUC_HILL_SLOPE 8.58, PBLUC_R_SQUARED 0.684, read-out: LUCIFERASE INFECTION ASSAY - IC50): 3 µM
O=C(c1cc2c(s1)CCC2)N1C=CN(c2ccc(C(F)(F)F)cn2)C1c1nccn1-c1ccc(C(F)(F)F)cn1 (stereo not given)	> 10	IC50 (FFLUC_HILL_SLOPE 2.58, FFLUC_R_SQUARED 0.668, PBLUC_HILL_SLOPE 14.8, PBLUC_R_SQUARED 0.174, read-out: LUCIFERASE INFECTION ASSAY - IC50): 9.12 µM
CC(C)(C)C(=O)Nc1ccc(-c2nc3ncccc3o2)c(Cl)c1	4.94	IC50 (FFLUC_HILL_SLOPE 2.53, FFLUC_R_SQUARED 0.8, PBLUC_HILL_SLOPE 0.961, PBLUC_R_SQUARED 0.809, read-out: LUCIFERASE INFECTION ASSAY - IC50): 0.502 µM
Oc1cccnc1NC(c1ccccc1F)c1ccc2cccnc2c1O (stereo not given)	9.5	IC50 (FFLUC_HILL_SLOPE 2.5, FFLUC_R_SQUARED 0.451, HEPG2TOX_HILL_SLOPE 1.9, HEPG2TOX_R_SQUARED 0.963, PBLUC_HILL_SLOPE 13, PBLUC_R_SQUARED 0.418, read-out: LUCIFERASE INFECTION ASSAY - IC50): 8.03 µM
Cc1ccc2nc(NC(=O)c3cccc(C(F)(F)F)c3)c(C(=O)NC3CCCCC3)n2c1	0.579	IC50 (FFLUC_HILL_SLOPE 2.54, FFLUC_R_SQUARED 0.701, HEPG2TOX_HILL_SLOPE 1.03, HEPG2TOX_R_SQUARED 0.261, PBLUC_HILL_SLOPE 2.67, PBLUC_R_SQUARED 0.838, read-out: LUCIFERASE INFECTION ASSAY - IC50): 0.254 µM
CCc1nn2c(=O)cc(CSc3ccc(C)cc3)[nH]c2c1-c1ccc(F)cc1	2.98	IC50 (FFLUC_HILL_SLOPE 2.56, FFLUC_R_SQUARED 0.75, PBLUC_HILL_SLOPE 10.5, PBLUC_R_SQUARED 0.512, read-out: LUCIFERASE INFECTION ASSAY - IC50): 2.42 µM
Cc1ccc(S(=O)(=O)Nc2ccc(Oc3ccc(Cl)cc3)cc2)cc1	> 8.83	IC50 (FFLUC_HILL_SLOPE 2.59, FFLUC_R_SQUARED 0.0226, PBLUC_HILL_SLOPE 17.9, PBLUC_R_SQUARED 0.275, read-out: LUCIFERASE INFECTION ASSAY - IC50): 8.28 µM
OC(c1cccc(OC(F)(F)F)c1)c1nnc(Nc2ccc(F)c(Cl)c2)s1 (stereo not given)	> 10	IC50 (FFLUC_HILL_SLOPE 2.61, FFLUC_R_SQUARED 0.0634, read-out: LUCIFERASE INFECTION ASSAY - IC50): > 10 µM
CC(=N)C(C#N)c1csc(Nc2cc(C)cc(C)c2)n1 (stereo not given)	> 10	IC50 (FFLUC_HILL_SLOPE 2.53, FFLUC_R_SQUARED 0.471, read-out: LUCIFERASE INFECTION ASSAY - IC50): > 10 µM
Cc1ccc(C(C)C)c(OCC(=O)Nc2ccc(I)c(C)n2)c1	> 10	IC50 (FFLUC_HILL_SLOPE 2.58, FFLUC_R_SQUARED 0.455, read-out: LUCIFERASE INFECTION ASSAY - IC50): > 10 µM
O=c1c(Cl)c(Cl)cnn1-c1cc(Cl)cc(Cl)c1	4.28	IC50 (FFLUC_HILL_SLOPE 2.56, FFLUC_R_SQUARED 0.592, HEPG2TOX_HILL_SLOPE 5.14, HEPG2TOX_R_SQUARED 0.846, PBLUC_HILL_SLOPE 13.3, PBLUC_R_SQUARED 0.218, read-out: LUCIFERASE INFECTION ASSAY - IC50): 3.63 µM
